Experimental findings from patent publication US20260324636A1, “COMPOSITION FOR PROVIDING PLANT WITH STRESS RESISTANCE” (KIRIN HOLDINGS KABUSHIKI KAISHA, priority 2022, published 2026) are described below.

In test [1] the test system is HAC1. Put plainly: HAC1 gene expression by real-time PCR, Example 15. The format is in vivo. To be noted: Arabidopsis thaliana; 0.1 mM in medium, 2 hours after application, 22° C.; read-out: HAC1 expression level, increase vs group not subjected to the treatment. Here is the method:
The materials as used in Example 14 were used.
A liquid medium containing a ½ Murashige and Skoog Plant Salt Mixture (Nacalai) and 1 (w/v) % sucrose (FUJIFILM Wako) was used as a growth medium.
Arabidopsis thaliana seeds were sterilized with the use of a Kitchen Haiter® liquid (Kao Corporation) diluted to one-half concentration with distilled water for 3 minutes, washed 3 times with sterile distilled water, and then incubated at 4° C. overnight. The growth medium was dispensed at 1 ml/well on a 12-well microplate (IWAKI), 5 grains of the seeds were inoculated in each well, and the plate was transferred to the incubator (TOMY) to initiate growing. The incubator was maintained at a temperature of 22° C. for a daily cycle of 16 hours light and 8 hours darkness.
N-acetylglutamic acid was applied to Arabidopsis thaliana 7 days after inoculation to the final concentration of 0.1 mM in the medium, followed by incubation for 2 hours or 6 hours. The incubator was maintained at a temperature of 22° C. for a daily cycle of 16 hours light and 8 hours darkness. After incubation, the samples were frozen with liquid nitrogen, and RNA was extracted using the RNeasy Plant Mini Kit […]. […]
Thereafter, the relative expression levels of the target genes upon N-acetylglutamic acid treatment were calculated by the ΔΔCt method using the Cp values obtained by real-time PCR.
A general note: Quantitative PCR measures a nucleic acid by following its amplification.

The test system of test [2] is H1HSFA2. Put plainly: H1HSFA2 gene expression by real-time PCR, Example 7. Format: in vivo, hop. The settings on record: 1 mM in medium, 20° C. for 2 hours, leaves; read-out: H1HSFA2 expression level, increase vs control. An excerpt:
In order to design primers for the target genes necessary for gene expression analysis by real-time PCR, homologs of Arabidopsis thaliana high-temperature-responsive genes in hop were searched for. The amino acid sequences of Arabidopsis thaliana HSFA2 (AGI code: AT2G26150) and HSP17.6C (AGI code: AT1G53540) were obtained from TAIR (https://www.arabidopsis.org/), and the nucleotide sequences of the gene homologs were obtained using Hopbase (https://hopbase.cgrb.oregonstate.edu/). […] As the reference gene, the nucleotide sequence of the homolog of Arabidopsis thaliana EF1α (AGI code: AT1G18070) was obtained. The hop homolog genes were designated as H1HSFA2, H1HSP17.6C, and HIEF1α, respectively.
The materials as used in Example 4 were used.
The methods as employed in Example 4 were employed.
The leaves in the first and the second nodes from the apical buds of the tissue-cultured seedlings were sampled 1.5 months after the initiation of subculture and inoculated into a liquid medium consisting of a ½ Murashige and Skoog Plant Salt Mixture and 2 (w/v) % glucose. Specifically, a liquid medium was dispensed at 5 ml/well to a 6-well microplate (IWAKI), and 5 hop leaves were mounted thereon. […]
Thereafter, the relative expression level of the target gene upon N-acetylglutamic acid treatment was calculated by the ΔΔCt method.

Test [3] concerns hop. Put plainly: Oxidation stress resistance against methyl viologen in hop leaves (leaf chlorosis, chlorophyll content), Example 10. The settings on record: 1 mM, 5 μM methyl viologen, 22° C. 4 days. Format: in vivo, hop (variety: Hersbrucker). Here is the method: A hop strain (the variety: Hersbrucker) was used as an experimental material. Hop seedlings grown in the field of Kirin Brewery Company, Limited in Iwate, Japan were used.
A Murashige and Skoog Plant Salt Mixture 2.2 g and glucose 20 g (FUJIFILM Wako) were dissolved in 1 l of pure water, and a pH was adjusted to 5.8. Thereafter, agar (8 g (Ina Food Industry Co., Ltd.) was dissolved and autoclaved (121° C., 15 minutes).
A Murashige and Skoog Plant Salt Mixture 2.2 g and glucose 20 g were dissolved in 1 l of pure water, a pH was adjusted to 5.8, and the resultant was autoclaved (121° C., 20 minutes).
Tissue-cultured seedlings required for evaluation of oxidation stress response of a hop were prepared in a laboratory. […]
Leaf chlorosis is observed in plants upon oxidation stress exposure. Thus, an extent of chlorosis was evaluated by measuring the content of the green pigment chlorophyll in leaves.
Plants in a well (3 leaves) was transferred to a 1.5-ml tube containing 1 ml of N,N-dimethylformamide and incubated at 4° C. in the dark for 1 day to extract the chlorophyll. The absorbance of the extract was measured at 647 nm and 664 nm, respectively, to calculate the chlorophyll content on a leaf fresh weight basis. The chlorophyll content was calculated in the same manner as in Example 1.

SMILES strings stand for the structures.

Regarding `CC(=O)N[C@@H](CCC(=O)O)C(=O)O` [N-acetylglutamic acid], the fold induction at 100 µM in test [1] stood at 1.2. The fold induction at 1000 µM in test [2] worked out at 1.7. The “leaf chlorosis in MV-treated group, compared with control group” value in test [3] is given as “more suppressed”. Further, in test [3] (leaf fresh weight basis), the “decrease in the chlorophyll content in the MV-treated groups, compared with the control group” value is recorded as “suppressed”.
